# Data: patent US10738028B2, “Spiro three-membered ring, spiro five-membered ring peptide deformylase inhibitor and use thereof in antibacteria and anti-tumor” (priority 2016, dated 2020)
# Columns and labels:
# Assay type in all cases: cell-based
# [1] = tested on: BEL-7402 liver cancer cell line; test: CCK-8 proliferation inhibition; conditions: concentration of 30 μM, 72 hours, 30 µM
# In short: (§1)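 Plating at 2000 cells/well, then incubation overnight at 37° C. Next, a range of compound concentrations for 72 hours (control 1‰ DMSO). Finally, medium decanted and CCK-8 diluted 1:10 added.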
# [2] = tested on: A549 lung cancer cell line; test: CCK-8 proliferation inhibition; conditions: Homo sapiens, A549, 72 h, concentration of 30 μM
# In short: as §1
# [3] = tested on: MGC-803 gastric cancer cell line; test: CCK-8 proliferation inhibition; conditions: concentration of 30 μM
# In short: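 Cells were seeded at 2000 cells/well and cultured overnight at 37° C, 5% CO2, then exposed for 72 hours to compounds diluted from DMSO stocks. Controls received 1‰ DMSO. CCK-8 (1:10 diluted) replaced the medium. MGC-803 and Jurkat were grown in 1640, PC3 in F12, and MCF-7 in DMEM high glucose, each with 10% newborn bovine serum.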
# [4] = tested on: HCT-116 colorectal cancer cell line; test: CCK-8 proliferation inhibition; conditions: concentration of 30 μM, 72 hours, CCK-8
# In short: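 HCT-116 cells, seeded at 2000 cells/well in McCoy's 5A with 10% newborn bovine serum, were cultured overnight at 37° C., 5% CO2, then exposed to compound dilutions in medium for 72 hours. Viability was read with 1:10 diluted CCK-8; controls received 1‰ DMSO.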
# [5] = tested on: Streptococcus pneoumoniae (SPN); test: MIC, two-fold agar dilution (CLSI), clinical isolates
# In short: (§2)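 CLSI two-fold agar dilution; MIC of test samples read per tested strain.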
# [6] = tested on: methicillin-resistant Staphylococcus aureus (MRSA); test: as above
# In short: as §2
# [7] = tested on: Escherichia coli (including ESBLs, non-ESBLs); test: as above
# In short: as §2
# [8] = tested on: Moraxella catarrhalis (BCA); test: as above
# In short: as §2
# [9] = tested on: Enterococcus faecalis (EFA); test: as above
# In short: as §2
# [10] = tested on: methicillin-resistant Staphylococcus epidermidis (MRSE); test: as above
# In short: as §2
# [11] = tested on: methicillin-sensitive Staphylococcus aureus (MSSA); test: as above
# In short: as §2
# [12] = tested on: Enterococcus faecium (EFM); test: as above
# In short: as §2
# [13] = tested on: methicillin-sensitive Staphylococcus epidermidis (MSSE); test: as above
# In short: as §2
# [14] = MIC in vitro anti-bacterial experiments, Gram-positive bacteria; conditions: lowest MIC reached; read-out: minimum inhibitory concentration against Gram-positive bacteria
# From the text: 1. The invention adopts the two-fold agar dilution method recommended by the operating procedure of antimicrobial susceptibility testing set by American Clinical and Laboratory Standards Institute (CLSI) to determine the Minimum Inhibitory Concentration (MIC) of the test samples against the tested strains.
smiles,measurement,setting,value
CC(C)(C)c1cc(NC(=O)[C@@H]2CC3(CC3)CN2C(=O)[C@H](CC2CCCC2)CN(O)C=O)no1 [Example 38],"Inhibition of proliferation, Liver cancer BEL-7402",[1],75%
same,inhibition at 30 µM,[2],38%
same,inhibition at 30 µM,"[3]; Homo sapiens, MGC-803, 72 h",> 50%
same,"Inhibition of proliferation, Gastric cancer MGC-803","[3]; 72 hours, 30 µM",50%
same,inhibition at 30 µM,"[4]; Homo sapiens, HCT-116, 72 h, read-out: HCT116 inhibition rate/%",> 50%
same,HCT116 inhibition rate/%,[4]; 30 µM,52%
same,MIC (anti-bacterial activity),[5]; strain SPN 16-2,0.25 µg/mL
same,MIC (anti-bacterial activity),[5]; strain SPN 16-4,0.5 µg/mL
same,MIC (anti-bacterial activity),[6]; strain MRSA 15-1,0.125 µg/mL
same,MIC (anti-bacterial activity),[6]; strain MRSA 15-2,0.125 µg/mL
same,MIC (anti-bacterial activity),[6]; strain MRSA 15-3,0.125 µg/mL
same,MIC (anti-bacterial activity),[6]; strain MRSA 15-4,0.25 µg/mL
same,MIC (anti-bacterial activity),[7]; strain ECO+ 15-1,16 µg/mL
same,MIC (anti-bacterial activity),[7]; strain ECO+ 15-2,32 µg/mL
same,MIC (anti-bacterial activity),[7]; strain ECO+ 15-3,16 µg/mL
same,MIC (anti-bacterial activity),[7]; strain ECO+ 15-4,16 µg/mL
same,MIC (anti-bacterial activity),[7]; strain ECO− 15-1,16 µg/mL
same,MIC (anti-bacterial activity),[7]; strain ECO− 15-2,32 µg/mL
same,MIC (anti-bacterial activity),[7]; strain ECO− 15-3,32 µg/mL
same,MIC (anti-bacterial activity),[7]; strain ECO− 15-4,32 µg/mL
same,"Anti-bacterial activity (MIC), strain BCA 14-10",[8]; clinical isolate BCA 14-10,0.25 µg/mL
same,MIC (anti-bacterial activity),[8]; strain BCA 14-1,0.25 µg/mL
same,MIC (anti-bacterial activity),[8]; strain BCA 14-4,1 µg/mL
same,MIC (anti-bacterial activity),[8]; strain BCA 14-5,0.5 µg/mL
same,MIC (anti-bacterial activity),[8]; strain BCA 14-6,1 µg/mL
same,MIC (anti-bacterial activity),[8]; strain BCA 14-7,0.25 µg/mL
same,MIC (anti-bacterial activity),[8]; strain BCA 14-8,0.25 µg/mL
same,MIC (anti-bacterial activity),[9]; strain EFA 15-1,4 µg/mL
same,MIC (anti-bacterial activity),[9]; strain EFA 15-2,4 µg/mL
same,MIC (anti-bacterial activity),[9]; strain EFA 15-3,0.25 µg/mL
same,MIC (anti-bacterial activity),[9]; strain EFA 15-4,4 µg/mL
same,MIC (anti-bacterial activity),[9]; strain EFA 15-5,4 µg/mL
same,MIC (anti-bacterial activity),[9]; strain EFA 15-6,4 µg/mL
same,MIC (anti-bacterial activity),[9]; strain EFA 15-9,4 µg/mL
same,MIC (anti-bacterial activity),[10]; strain MRSE 15-1,0.25 µg/mL
same,MIC (anti-bacterial activity),[10]; strain MRSE 15-2,0.25 µg/mL
same,MIC (anti-bacterial activity),[10]; strain MRSE 15-3,0.25 µg/mL
same,MIC (anti-bacterial activity),[10]; strain MRSE 15-7,0.25 µg/mL
same,MIC (anti-bacterial activity),[11]; strain MSSA 15-3,0.25 µg/mL
same,MIC (anti-bacterial activity),[11]; strain MSSA 15-4,0.25 µg/mL
same,MIC (anti-bacterial activity),[11]; strain MSSA 15-5,0.125 µg/mL
same,MIC (anti-bacterial activity),[11]; strain MSSA 15-6,0.125 µg/mL
same,MIC (anti-bacterial activity),[12]; strain EFM 15-1,0.25 µg/mL
same,MIC (anti-bacterial activity),[12]; strain EFM 15-2,0.25 µg/mL
same,MIC (anti-bacterial activity),[12]; strain EFM 15-3,0.25 µg/mL
same,MIC (anti-bacterial activity),[12]; strain EFM 15-4,0.5 µg/mL
same,MIC (anti-bacterial activity),[12]; strain EFM 15-5,0.25 µg/mL
same,MIC (anti-bacterial activity),[12]; strain EFM 15-6,0.5 µg/mL
same,MIC (anti-bacterial activity),[13]; strain MSSE 15-3,0.25 µg/mL
same,MIC (anti-bacterial activity),[13]; strain MSSE 15-4,0.25 µg/mL
same,MIC (anti-bacterial activity),[13]; strain MSSE 15-5,0.25 µg/mL
same,MIC (anti-bacterial activity),[13]; strain MSSE 15-6,< 0.008 µg/mL
same,MIC,[14],< 0.008 µg/mL
